pIC50: −log10 of the molar value.
Legend:
rat EAAT4 (rEAAT4) = biological target: T1, rat EAAT4 (rEAAT4) (Rattus norvegicus, UniProt O35921); experiment: [3H]-D-Asp uptake assay, rEAAT4-tsA201 cells; type: cell-based
T1 sequence (O35921 1-561): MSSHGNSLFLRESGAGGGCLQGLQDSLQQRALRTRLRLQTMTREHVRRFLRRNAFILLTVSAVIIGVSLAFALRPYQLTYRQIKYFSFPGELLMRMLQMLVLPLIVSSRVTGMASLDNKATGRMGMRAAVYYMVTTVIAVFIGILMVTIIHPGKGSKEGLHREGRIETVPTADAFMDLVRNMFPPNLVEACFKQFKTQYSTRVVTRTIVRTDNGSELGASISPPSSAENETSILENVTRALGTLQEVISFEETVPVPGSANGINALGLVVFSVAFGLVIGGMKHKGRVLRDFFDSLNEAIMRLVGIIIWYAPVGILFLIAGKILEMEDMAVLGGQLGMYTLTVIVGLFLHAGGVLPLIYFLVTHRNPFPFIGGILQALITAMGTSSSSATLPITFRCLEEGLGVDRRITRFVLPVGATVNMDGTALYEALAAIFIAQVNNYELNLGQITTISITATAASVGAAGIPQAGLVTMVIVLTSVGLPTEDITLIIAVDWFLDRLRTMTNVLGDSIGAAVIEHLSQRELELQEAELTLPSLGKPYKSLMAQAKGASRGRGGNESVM

human EAAT2 (hEAAT2) = human EAAT2 (hEAAT2) (Homo sapiens, UniProt P43004); experiment: [3H]-D-Asp uptake assay, hEAAT2-HEK293 cells; type: cell-based
human EAAT1 (hEAAT1) = human EAAT1 (hEAAT1) (Homo sapiens, UniProt P43003); experiment: [3H]-D-Asp uptake assay, hEAAT1-HEK293 cells; type: cell-based
human EAAT3 (hEAAT3) = biological target: T2, human EAAT3 (hEAAT3) (Homo sapiens, UniProt P43005); experiment: [3H]-D-Asp uptake assay, hEAAT3-HEK293 cells; type: cell-based; conditions: hEAAT3 pIC50 ± S.E.M.
T2 sequence (P43005 1-524): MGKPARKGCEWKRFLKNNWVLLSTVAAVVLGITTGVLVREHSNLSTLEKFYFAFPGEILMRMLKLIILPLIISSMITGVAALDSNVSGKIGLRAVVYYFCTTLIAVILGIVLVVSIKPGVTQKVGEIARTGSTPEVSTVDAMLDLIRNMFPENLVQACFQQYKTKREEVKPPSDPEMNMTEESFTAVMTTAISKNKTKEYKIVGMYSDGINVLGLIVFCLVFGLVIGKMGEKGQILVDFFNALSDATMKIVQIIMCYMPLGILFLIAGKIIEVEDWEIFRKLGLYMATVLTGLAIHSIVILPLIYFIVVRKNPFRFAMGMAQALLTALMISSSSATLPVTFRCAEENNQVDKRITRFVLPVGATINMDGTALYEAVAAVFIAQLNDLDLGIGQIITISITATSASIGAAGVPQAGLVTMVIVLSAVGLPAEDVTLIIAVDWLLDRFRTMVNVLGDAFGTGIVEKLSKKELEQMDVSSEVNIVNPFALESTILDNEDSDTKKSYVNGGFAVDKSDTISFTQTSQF

EAAT3 = conditions: cited from earlier work

Chain of human EAAT2 (hEAAT2) (P43004 whole entry, the tested form may be a part): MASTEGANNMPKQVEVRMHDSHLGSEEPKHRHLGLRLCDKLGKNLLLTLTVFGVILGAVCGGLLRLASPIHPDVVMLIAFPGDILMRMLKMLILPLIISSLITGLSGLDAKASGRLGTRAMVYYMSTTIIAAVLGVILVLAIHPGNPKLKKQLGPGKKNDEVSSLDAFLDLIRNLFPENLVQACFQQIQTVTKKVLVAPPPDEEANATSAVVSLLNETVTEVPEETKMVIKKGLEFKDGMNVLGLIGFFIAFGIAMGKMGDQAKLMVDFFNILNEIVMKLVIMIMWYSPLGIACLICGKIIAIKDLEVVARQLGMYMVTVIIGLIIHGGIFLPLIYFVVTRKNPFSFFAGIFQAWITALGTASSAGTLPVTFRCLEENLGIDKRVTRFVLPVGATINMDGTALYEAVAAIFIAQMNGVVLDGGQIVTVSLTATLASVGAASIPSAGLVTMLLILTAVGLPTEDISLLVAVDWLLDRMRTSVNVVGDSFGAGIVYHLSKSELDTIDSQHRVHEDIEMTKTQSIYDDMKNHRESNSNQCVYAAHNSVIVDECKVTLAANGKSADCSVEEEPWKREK
Chain of human EAAT1 (hEAAT1) (P43003 whole entry, the tested form may be a part): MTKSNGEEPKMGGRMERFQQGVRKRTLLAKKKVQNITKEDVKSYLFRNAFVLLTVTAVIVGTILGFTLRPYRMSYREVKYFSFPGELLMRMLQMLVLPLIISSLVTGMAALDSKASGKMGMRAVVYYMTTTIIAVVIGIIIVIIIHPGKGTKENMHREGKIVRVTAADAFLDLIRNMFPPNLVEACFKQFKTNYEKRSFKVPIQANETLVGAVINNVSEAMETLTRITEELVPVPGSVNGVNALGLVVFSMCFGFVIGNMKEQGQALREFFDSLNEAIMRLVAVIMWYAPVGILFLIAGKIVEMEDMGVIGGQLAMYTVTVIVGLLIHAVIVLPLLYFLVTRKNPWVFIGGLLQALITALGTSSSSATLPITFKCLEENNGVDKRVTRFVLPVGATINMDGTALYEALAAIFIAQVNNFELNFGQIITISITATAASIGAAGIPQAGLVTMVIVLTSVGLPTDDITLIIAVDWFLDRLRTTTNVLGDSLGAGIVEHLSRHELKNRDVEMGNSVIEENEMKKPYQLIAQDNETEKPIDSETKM

`N[C@H](C(=O)O)[C@H](OCc1ccsc1)C(=O)O` (racemic) [DL-threo-19b, (DL-threo)-3-(Thiophen-3-ylmethoxy)aspartate] gave a pIC50 (rat EAAT4 (rEAAT4)) of 5.37.
In the case of `N[C@H](C(=O)O)[C@H](OCc1cccc(NC(=O)Cc2ccc(C(F)(F)F)cc2)c1)C(=O)O` [3d], the “fold increased IC50 at hEAAT2 relative to L-TFB-TBOA” value (human EAAT2 (hEAAT2); versus L-TFB-TBOA (3a)) was 5–10 fold, the “fold increased IC50 at hEAAT1 relative to L-TFB-TBOA” value (human EAAT1 (hEAAT1); versus L-TFB-TBOA (3a)) was 5–10 fold and the “fold increased IC50 at rEAAT4 relative to L-TFB-TBOA” value (rat EAAT4 (rEAAT4); versus L-TFB-TBOA (3a)) was 5–10 fold.
For `C#CCO[C@H](C(=O)O)[C@@H](N)C(=O)O` (racemic) [DL-erythro-19c, (DL-erythro)-3-(Prop-2-yn-1-yloxy)aspartate], the pIC50 (human EAAT2 (hEAAT2); hEAAT2 IC50, [3H]-D-Asp uptake, HEK293 cells) was 4.09, the pIC50 (human EAAT3 (hEAAT3)) was 4.55 and the pIC50 (human EAAT1 (hEAAT1); hEAAT1 IC50, [3H]-D-Asp uptake, HEK293 cells) was 4.00. The pIC50 (rat EAAT4 (rEAAT4)) was about 4.00.
Work on `N[C@H](C(=O)O)[C@H](OCC1CC1)C(=O)O` (racemic) [DL-threo-19a, (DL-threo)-3-(Cyclopropylmethoxy)aspartate] yielded a pIC50 (human EAAT3 (hEAAT3)) of 5.43 and a pIC50 (rat EAAT4 (rEAAT4)) of 4.80.
For `N[C@H](C(=O)O)[C@H](Cc1ccccc1)C(=O)O` [compound 4, L-threo-3-benzylaspartate], the “preference as an inhibitor for EAAT3 over EAAT1 and EAAT2” value (EAAT3) is listed as 10 fold.

Source: article PMC6139576 (Journal of Medicinal Chemistry, 2018)
